Reference: patent publication US20070197538A1, “Anti-vascular and anti-proliferation methods, therapies, and combinations employing specific tyrosine kinase inhibitors” (priority 2004, published 2007)
Entries after “also recorded” stand apart in the source; their conditions may differ. Counter-ions that a name gives are not always drawn.

Columns and labels:
[1] = system: protein kinases belonging to families different from the tyrosine kinase family; assay: kinase profiling, protein kinases outside the tyrosine kinase family; format: biochemical
Kit = molecular target: T1, Kit (Homo sapiens, UniProt P10721); assay: recombinant kinase transphosphorylation (33P-ATP) profiling, Kit; format: biochemical; conditions: 10 concentrations, n=1
T1 construct: host or cells: baculovirus system
T1 sequence (P10721 26-976): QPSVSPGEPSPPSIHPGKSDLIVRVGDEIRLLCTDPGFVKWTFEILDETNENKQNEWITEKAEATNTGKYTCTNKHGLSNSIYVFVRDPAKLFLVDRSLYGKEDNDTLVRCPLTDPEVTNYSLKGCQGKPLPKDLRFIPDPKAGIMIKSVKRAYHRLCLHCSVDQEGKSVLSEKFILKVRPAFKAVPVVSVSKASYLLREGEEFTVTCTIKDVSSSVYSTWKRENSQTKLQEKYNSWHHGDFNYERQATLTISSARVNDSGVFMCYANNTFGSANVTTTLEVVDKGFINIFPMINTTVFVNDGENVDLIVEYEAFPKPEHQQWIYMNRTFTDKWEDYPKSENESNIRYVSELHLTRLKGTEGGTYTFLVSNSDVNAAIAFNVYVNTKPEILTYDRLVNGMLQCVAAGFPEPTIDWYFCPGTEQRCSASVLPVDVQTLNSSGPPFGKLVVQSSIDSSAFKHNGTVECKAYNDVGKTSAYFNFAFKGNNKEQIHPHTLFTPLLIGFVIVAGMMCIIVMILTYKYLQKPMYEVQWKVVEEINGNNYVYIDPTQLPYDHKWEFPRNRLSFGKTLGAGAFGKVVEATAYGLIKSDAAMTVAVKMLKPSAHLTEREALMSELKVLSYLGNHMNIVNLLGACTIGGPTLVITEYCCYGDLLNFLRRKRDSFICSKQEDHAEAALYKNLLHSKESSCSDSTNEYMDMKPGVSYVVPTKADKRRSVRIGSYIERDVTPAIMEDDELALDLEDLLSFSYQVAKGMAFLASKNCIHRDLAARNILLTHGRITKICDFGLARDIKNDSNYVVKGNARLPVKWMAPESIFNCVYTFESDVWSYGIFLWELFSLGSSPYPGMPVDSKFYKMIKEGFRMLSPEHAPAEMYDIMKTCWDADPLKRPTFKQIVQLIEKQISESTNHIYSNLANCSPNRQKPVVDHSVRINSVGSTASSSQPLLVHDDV

IGF1-R = molecular target: T2, IGF1-R (Homo sapiens, UniProt P08069); assay: recombinant kinase transphosphorylation (33P-ATP) profiling, IGF1-R; format: biochemical; conditions: 10 concentrations, n=1
T2 construct: host or cells: baculovirus system
T2 sequence (P08069 31-1367): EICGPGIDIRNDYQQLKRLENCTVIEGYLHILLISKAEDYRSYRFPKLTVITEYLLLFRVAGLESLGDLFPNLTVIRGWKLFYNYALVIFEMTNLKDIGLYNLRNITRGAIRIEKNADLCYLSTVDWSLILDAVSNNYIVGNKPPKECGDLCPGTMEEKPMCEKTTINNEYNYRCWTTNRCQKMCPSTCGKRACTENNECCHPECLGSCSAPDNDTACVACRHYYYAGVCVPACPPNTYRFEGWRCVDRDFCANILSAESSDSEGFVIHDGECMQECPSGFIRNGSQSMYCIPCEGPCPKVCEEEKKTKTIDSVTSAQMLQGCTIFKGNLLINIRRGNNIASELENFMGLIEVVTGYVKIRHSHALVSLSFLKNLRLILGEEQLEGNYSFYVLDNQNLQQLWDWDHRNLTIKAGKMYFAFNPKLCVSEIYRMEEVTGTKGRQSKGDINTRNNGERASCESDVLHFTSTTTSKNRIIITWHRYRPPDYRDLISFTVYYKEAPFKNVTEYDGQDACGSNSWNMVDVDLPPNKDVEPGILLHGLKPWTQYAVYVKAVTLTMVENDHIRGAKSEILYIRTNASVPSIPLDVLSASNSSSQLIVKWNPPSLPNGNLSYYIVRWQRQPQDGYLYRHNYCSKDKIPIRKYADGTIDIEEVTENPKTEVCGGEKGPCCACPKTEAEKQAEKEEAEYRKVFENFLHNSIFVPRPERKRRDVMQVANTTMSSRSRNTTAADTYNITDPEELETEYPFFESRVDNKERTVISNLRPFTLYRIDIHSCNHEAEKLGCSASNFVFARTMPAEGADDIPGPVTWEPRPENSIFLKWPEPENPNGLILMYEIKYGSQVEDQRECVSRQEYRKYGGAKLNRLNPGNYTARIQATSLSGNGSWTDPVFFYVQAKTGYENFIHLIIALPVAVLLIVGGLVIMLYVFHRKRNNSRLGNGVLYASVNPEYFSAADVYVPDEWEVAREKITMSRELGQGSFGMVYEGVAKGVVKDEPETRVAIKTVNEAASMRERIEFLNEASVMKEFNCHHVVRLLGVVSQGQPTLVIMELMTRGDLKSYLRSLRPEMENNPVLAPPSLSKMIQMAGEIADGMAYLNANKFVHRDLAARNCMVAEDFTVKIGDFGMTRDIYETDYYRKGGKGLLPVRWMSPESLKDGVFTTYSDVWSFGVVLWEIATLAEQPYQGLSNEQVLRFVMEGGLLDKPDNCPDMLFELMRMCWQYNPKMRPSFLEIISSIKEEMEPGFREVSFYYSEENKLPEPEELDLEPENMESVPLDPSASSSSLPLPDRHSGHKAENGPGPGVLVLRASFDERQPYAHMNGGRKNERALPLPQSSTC
Procedure: (§1) The ability of a set of protein kinases—tyrosine and serine/threonine kinases expressed in a baculovirus system—to incorporate ^33P (from ^33P-ATP) in relevant substrates, in the presence of decreasing concentrations of the inhibitor (10 concentrations from 10^−5 to 3.10^−10, n=1) was determined.

Met = molecular target: T3, Met (Homo sapiens, UniProt P08581); assay: recombinant kinase transphosphorylation (33P-ATP) profiling, Met; format: biochemical; conditions: 10 concentrations, n=1
T3 construct: host or cells: baculovirus system
T3 sequence (P08581 25-1390): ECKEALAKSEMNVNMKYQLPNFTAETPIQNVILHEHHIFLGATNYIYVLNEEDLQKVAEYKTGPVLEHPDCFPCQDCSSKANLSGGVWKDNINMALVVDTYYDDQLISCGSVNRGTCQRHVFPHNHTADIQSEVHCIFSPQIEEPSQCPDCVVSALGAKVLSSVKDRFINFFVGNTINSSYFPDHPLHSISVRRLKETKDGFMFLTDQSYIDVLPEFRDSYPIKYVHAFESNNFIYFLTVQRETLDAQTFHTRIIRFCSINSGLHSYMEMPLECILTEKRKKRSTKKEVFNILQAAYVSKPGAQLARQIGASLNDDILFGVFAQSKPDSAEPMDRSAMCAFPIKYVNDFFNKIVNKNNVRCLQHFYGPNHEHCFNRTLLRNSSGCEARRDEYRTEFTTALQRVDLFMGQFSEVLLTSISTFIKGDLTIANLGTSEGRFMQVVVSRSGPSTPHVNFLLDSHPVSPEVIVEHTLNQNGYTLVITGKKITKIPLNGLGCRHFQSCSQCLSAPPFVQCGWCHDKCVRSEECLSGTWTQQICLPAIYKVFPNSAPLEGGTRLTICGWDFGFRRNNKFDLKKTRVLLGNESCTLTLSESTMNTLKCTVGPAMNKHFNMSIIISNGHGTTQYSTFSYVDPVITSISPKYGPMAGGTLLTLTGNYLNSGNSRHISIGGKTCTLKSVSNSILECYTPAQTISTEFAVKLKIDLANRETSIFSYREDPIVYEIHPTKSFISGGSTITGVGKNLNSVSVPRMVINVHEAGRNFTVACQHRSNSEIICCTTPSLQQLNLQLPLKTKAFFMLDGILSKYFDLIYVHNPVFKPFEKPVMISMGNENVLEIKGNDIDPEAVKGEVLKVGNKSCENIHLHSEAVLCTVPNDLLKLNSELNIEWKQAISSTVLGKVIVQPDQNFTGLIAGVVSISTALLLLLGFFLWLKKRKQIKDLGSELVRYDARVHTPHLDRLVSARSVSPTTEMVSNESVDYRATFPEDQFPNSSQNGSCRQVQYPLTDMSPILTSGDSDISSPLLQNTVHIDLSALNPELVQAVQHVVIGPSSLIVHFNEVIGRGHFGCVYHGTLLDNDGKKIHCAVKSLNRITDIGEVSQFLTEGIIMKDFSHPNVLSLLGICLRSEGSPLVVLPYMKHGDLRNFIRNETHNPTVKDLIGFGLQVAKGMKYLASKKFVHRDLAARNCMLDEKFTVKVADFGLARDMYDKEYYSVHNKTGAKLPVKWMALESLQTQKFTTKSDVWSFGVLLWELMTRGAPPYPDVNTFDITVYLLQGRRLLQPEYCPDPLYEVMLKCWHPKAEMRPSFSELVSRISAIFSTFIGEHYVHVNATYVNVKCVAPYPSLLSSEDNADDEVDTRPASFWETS
Procedure: as §1

[2] = system: MAPK, P13K and STAT5 pathways; assay: FLT3 downstream signaling phosphorylation in AML FLT3-ITD cell lines; format: cell-based; conditions: immunoprecipitations/western blot
MV4-11 and MOLM-13 cells = assay: apoptosis by annexin V-FITC / propidium iodide flow cytometry; format: cell-based; conditions: 48 to 72 hours incubation
Procedure: Apoptosis was evaluated by means of flow cytometry to measure cellular binding of an annexin V-FITC conjugate as well as uptake of the vital stain propidium iodide.

L3.6 pL pancreatic tumor = assay: orthotopic human pancreatic cancer L3.6 pL in nude mice; format: in vivo
Procedure: A pancreatic tumor which is shown to upregulate expression of PDGF AA, BB, A/B at metastatic sites is used for the in vivo studies. Other tumor systems that are known to upregulate expression of PDGF may also be used such as ovarian cancer, prostate cancer, bone metastasis, or breast cancer bone metastasis.
Tumor cells L3.6 pL derived from pancreatic cancer are injected into the pancreas of nude mice. The tumors are grown into detectable lesions.
Two days later, the mice are killed and the organs with and without tumors harvested, fixed, and immunostained to evaluate expression of PDGF AA, BB, A/B, PDGF-R (α,β) and status of phosphorylation of PDGF-R (α,β) on tumor cells and organ-specific endothelial cells.
The surviving mice are then killed and the size of tumor and metastasis is measured. Fixation of the tissues and staining of the tumor cells are performed. Endothelial cells are examined for division (PCNA), apoptosis (TUNEL), CD31 (endothelial cells). Expression of PDGF AA, BB, A/B, and phosphorylation of PDGF-Rα/β are further studied in these endothelial cells.

VEGF-R2 = molecular target: T4, VEGF-R2 (Homo sapiens, UniProt P35968); assay: recombinant kinase transphosphorylation (33P-ATP) profiling, VEGF-R2; format: biochemical; conditions: 10 concentrations, n=1
T4 construct: host or cells: baculovirus system
Procedure: as §1

FGF-R1 = molecular target: T5, FGF-R1 (Homo sapiens, UniProt P11362); assay: recombinant kinase transphosphorylation (33P-ATP) profiling, FGF-R1; format: biochemical; conditions: 10 concentrations, n=1
T5 construct: host or cells: baculovirus system
Procedure: as §1

MOLM-13 cells (FLT3-ITD) = assay: MOLM-13 cell growth, luminescence assay at 72 hours; format: cell-based
Description: Staurosporine, a non specific kinase inhibitor, is used as positive control.

Abl-1 = molecular target: T6, Abl-1 (Homo sapiens, UniProt P00519); assay: recombinant kinase transphosphorylation (33P-ATP) profiling, Abl-1; format: biochemical; conditions: 10 concentrations, n=1
T6 construct: host or cells: baculovirus system
Procedure: as §1

VEGF-R1 = molecular target: T7, VEGF-R1 (Homo sapiens, UniProt P17948); assay: recombinant kinase transphosphorylation (33P-ATP) profiling, VEGF-R1; format: biochemical; conditions: 10 concentrations, n=1
T7 construct: host or cells: baculovirus system
Procedure: as §1

MV4;11 or RS4;11 cells = assay: subcutaneous MV4;11 or RS4;11 tumors in athymic nu/nu mice; format: in vivo; conditions: oral, daily or 3 times per week, 50-200 mg/kg, pre-existing tumors
Procedure: Animals are randomized into treatment groups of 15 mice each for efficacy studies. […] Tumor growth is measured twice weekly using Vernier calipers for the duration of the treatment. Tumor volumes are calculated as the product of length x width x height. On completion of the experiments, mice are sacrificed and tumors are harvested for determination of FLT3 and phosphorylated FLT3 in tumor lysates by immunoprecipitation and Western-blot.

FGR = molecular target: T8, FGR (Homo sapiens, UniProt P09769); assay: recombinant kinase transphosphorylation (33P-ATP) profiling, FGR; format: biochemical; conditions: 10 concentrations, n=1
T8 construct: host or cells: baculovirus system
Procedure: as §1

[3] = system: AML193 cells (wild type FLT3); assay: AML193 cell growth, luminescence assay at 72 hours; conditions: with or without 100 ng/mL FLT3 ligand, GN963 at concentrations used (30 μM), FIGS. 3 and 4
Eph-B4 = molecular target: T9, Eph-B4 (Homo sapiens, UniProt P54760); assay: recombinant kinase transphosphorylation (33P-ATP) profiling, Eph-B4; format: biochemical; conditions: 10 concentrations, n=1
T9 construct: host or cells: baculovirus system
Procedure: as §1

[4] = system: RS4-11 cells (FLT3-wild type); assay: RS4-11 cell growth, luminescence assay at 72 hours; format: cell-based, human; conditions: with or without 100 ng/mL FLT3 ligand, FIGS. 5 and 6
MV4-11 cells (FLT3-ITD) = assay: MV4-11 cell growth, luminescence assay at 72 hours; format: cell-based, human
Description: Staurosporine, a non specific kinase inhibitor, was used as positive control.

Flt-3 = molecular target: T10, Flt-3 (Homo sapiens, UniProt P36888); assay: recombinant kinase transphosphorylation (33P-ATP) profiling, Flt-3; format: biochemical; conditions: 10 concentrations, n=1
T10 construct: host or cells: baculovirus system

MV4;11 cells = assay: intravenous MV4;11 leukemia model in NOD-SCID mice; format: in vivo
Procedure: In a subset of animals, bone marrow cell suspensions are prepared by flushing mouse femurs with cold sterile PBS, at experimental timepoints (within 90 days of implantation).

[5] = system: Mouse endothelial cells from pancreas; assay: sensitivity of pancreas endothelial cells to Taxotere cytotoxicity; format: cell-based; conditions: with Taxotere
Procedure: Mouse endothelial cells from pancreas are maintained in culture at a temperature 33° C. where they are actively dividing.

FGF-R4 = molecular target: T11, FGF-R4 (Homo sapiens, UniProt P22455); assay: recombinant kinase transphosphorylation (33P-ATP) profiling, FGF-R4; format: biochemical; conditions: 10 concentrations, n=1
T11 construct: host or cells: baculovirus system
T11 sequence (P22455 22-802): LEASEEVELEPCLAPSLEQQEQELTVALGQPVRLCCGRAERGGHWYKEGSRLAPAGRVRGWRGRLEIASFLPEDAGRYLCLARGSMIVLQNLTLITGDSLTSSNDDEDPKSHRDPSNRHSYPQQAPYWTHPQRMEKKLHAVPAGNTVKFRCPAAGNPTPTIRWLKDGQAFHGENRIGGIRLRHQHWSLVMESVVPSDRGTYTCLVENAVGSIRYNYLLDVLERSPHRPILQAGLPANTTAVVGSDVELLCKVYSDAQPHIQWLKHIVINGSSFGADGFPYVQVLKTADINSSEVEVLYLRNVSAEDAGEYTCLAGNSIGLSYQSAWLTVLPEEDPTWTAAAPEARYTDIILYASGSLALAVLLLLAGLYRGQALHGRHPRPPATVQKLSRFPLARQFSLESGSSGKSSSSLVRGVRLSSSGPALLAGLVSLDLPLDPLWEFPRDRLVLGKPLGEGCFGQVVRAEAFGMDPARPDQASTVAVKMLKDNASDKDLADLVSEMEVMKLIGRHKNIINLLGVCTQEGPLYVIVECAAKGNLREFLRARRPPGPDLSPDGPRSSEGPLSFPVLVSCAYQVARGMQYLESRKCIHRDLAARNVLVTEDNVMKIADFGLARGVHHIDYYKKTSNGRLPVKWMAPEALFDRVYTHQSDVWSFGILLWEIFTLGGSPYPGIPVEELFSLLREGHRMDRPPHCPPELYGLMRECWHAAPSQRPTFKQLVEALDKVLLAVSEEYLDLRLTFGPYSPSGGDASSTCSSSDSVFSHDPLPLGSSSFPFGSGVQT
Procedure: as §1

FLT3-ITD = assay: cellular FLT3 phosphorylation, immunoprecipitation/western blot; conditions: immunoprecipitations/western blot
Irak = assay: recombinant kinase transphosphorylation (33P-ATP) profiling, Irak; format: biochemical; conditions: 10 concentrations, n=1
Src = molecular target: T12, Src (Homo sapiens, UniProt P12931); assay: recombinant kinase transphosphorylation (33P-ATP) profiling, Src; format: biochemical; conditions: 10 concentrations, n=1
T12 construct: host or cells: baculovirus system

PDGFRb = molecular target: T13, PDGFRb (Homo sapiens, UniProt P09619); assay: recombinant kinase transphosphorylation (33P-ATP) profiling, PDGFRb; format: biochemical; conditions: 10 concentrations, n=1
T13 construct: host or cells: baculovirus system

PDGFRa = molecular target: T14, PDGFRa (Homo sapiens, UniProt P16234); assay: recombinant kinase transphosphorylation (33P-ATP) profiling, PDGFRa; format: biochemical; conditions: 10 concentrations, n=1
T14 construct: host or cells: baculovirus system

Brk = molecular target: T15, Brk (Homo sapiens, UniProt Q13882); assay: recombinant kinase transphosphorylation (33P-ATP) profiling, Brk; format: biochemical; conditions: 10 concentrations, n=1
T15 construct: host or cells: baculovirus system
Procedure: as §1

EGF-R = molecular target: T16, EGF-R (Homo sapiens, UniProt P00533); assay: recombinant kinase transphosphorylation (33P-ATP) profiling, EGF-R; format: biochemical; conditions: 10 concentrations, n=1
T16 construct: host or cells: baculovirus system

Ins-R = molecular target: T17, Ins-R (Homo sapiens, UniProt P06213); assay: recombinant kinase transphosphorylation (33P-ATP) profiling, Ins-R; format: biochemical; conditions: 10 concentrations, n=1
T17 construct: host or cells: baculovirus system
T17 sequence (P06213 980-1382 limits assumed): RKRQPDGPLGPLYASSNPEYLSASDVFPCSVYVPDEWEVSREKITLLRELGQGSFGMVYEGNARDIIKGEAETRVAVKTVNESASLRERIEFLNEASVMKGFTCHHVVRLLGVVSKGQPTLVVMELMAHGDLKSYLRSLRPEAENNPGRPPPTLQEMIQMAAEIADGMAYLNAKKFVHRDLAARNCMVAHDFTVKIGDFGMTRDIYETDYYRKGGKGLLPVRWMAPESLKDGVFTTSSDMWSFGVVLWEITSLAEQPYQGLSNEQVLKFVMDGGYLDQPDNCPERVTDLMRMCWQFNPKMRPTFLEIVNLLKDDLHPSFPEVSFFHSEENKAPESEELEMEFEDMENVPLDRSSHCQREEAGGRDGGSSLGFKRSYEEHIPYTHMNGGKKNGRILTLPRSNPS

Lck = molecular target: T18, Lck (Homo sapiens, UniProt P06239); assay: recombinant kinase transphosphorylation (33P-ATP) profiling, Lck; format: biochemical; conditions: 10 concentrations, n=1
T18 construct: host or cells: baculovirus system

COc1cc2ncc(N[C@H]3CC[C@H](O)CC3)nc2cc1OC [GN963, trans-4-(6,7-dimethoxy-quinoxalin-2-ylamino)-cyclohexanol sulfate]
phosphorylation mediated by protein kinases of families other than tyrosine kinases [1]: did not inhibit | IC50 (Kit): 7200 nM | IC50 (IGF1-R): > 10000 nM | IC50 (Met): > 10000 nM | STAT5, MAPK and P13K phosphorylation [2]: inhibits STAT5, MAPK and P13K phosphorylation in a dose-dependent manner | induction of apoptosis (MV4-11 and MOLM-13 cells): induce apoptosis | survival rate (L3.6 pL pancreatic tumor; combination with Taxotere, 4-6 weeks): higher survival rate | effect of the combination in cancer refractory to chemotherapy (L3.6 pL pancreatic tumor; combination with Taxotere, tumor cells resistant to Taxotere (MDR cells)): synergistic effect | expression of phosphorylated PDGF-R on endothelial cells (L3.6 pL pancreatic tumor; single oral dose, organs harvested two days later): inhibited | IC50 (VEGF-R2): > 10000 nM | IC50 (FGF-R1): > 10000 nM | effect on MOLM-13 cell growth (MOLM-13 cells (FLT3-ITD); 72 hours, luminescence assay, FIG. 2): dose response effect | IC50 (MOLM-13 cells (FLT3-ITD); Homo sapiens, MOLM-13, 72 h with inhibitor, Cell Titer-Glo, range stated for MV4-11 and MOLM-13 together, read-out: IC50, inhibition of cellular proliferation): 0.7 to 2 µM | IC50 (Abl-1): 13000 nM | IC50 (VEGF-R1): > 10000 nM | tumor growth (MV4;11 or RS4;11 cells): efficacy against tumor growth | IC50 (FGR): 17000 nM | effect on AML193 cell growth [3]: not inhibited; also recorded: no effect | IC50 (Eph-B4): 7200 nM | effect on RS4-11 cell growth [4]: not inhibited; also recorded: no effect | effect on MV4-11 cell growth (MV4-11 cells (FLT3-ITD); 72 hours, luminescence assay, FIG. 1): inhibits MV4-11 cell growth in a dose dependent manner | IC50 (MV4-11 cells (FLT3-ITD); Homo sapiens, MV4-11, 72 h with inhibitor, Cell Titer-Glo, range stated for MV4-11 and MOLM-13 together, read-out: IC50, inhibition of cellular proliferation): 0.7 to 2 µM | IC50 (Flt-3): 1400 nM | large infiltrating cells with mitotic figures in bone marrow (MV4;11 cells; H&E-stained sections, oral 50-200 mg/kg): reduced numbers of large infiltrating cells with mitotic figures | CD45 positive cells in bone marrow (MV4;11 cells; flow cytometry, oral 50-200 mg/kg): reduced numbers of CD45 positive cells | survival (MV4;11 cells; oral, 50-200 mg/kg, once daily or 3 times per week): prolonged survival | resistance of organ-specific endothelial cells to Taxotere increased by pancreatic tumor-conditioned medium [5]: reversal of this increased resistance | sensitivity of endothelial cells to cytotoxicity mediated by Taxotere ([5]; cells at 33° C.): increases sensitivity of endothelial cells to cytotoxicity mediated by Taxotere | IC50 (FGF-R4): > 10000 nM | FLT3-ITD phosphorylation (FLT3-ITD): inhibited FLT3-ITD phosphorylation in a dose-dependent manner | IC50 (Irak): 4100 nM | IC50 (Src): 3600 nM

cis-4-(6,7-dimethoxy-quinoxalin-2-ylamino)-cyclohexanol sulfate [Cis-isomer]
IC50 (Kit): 6100 nM | IC50 (IGF1-R): > 10000 nM | IC50 (Met): 10000 nM | IC50 (PDGFRb): 2200 nM | IC50 (FGF-R1): > 10000 nM | IC50 (PDGFRa): 1400 nM | IC50 (Abl-1): 4400 nM | IC50 (Brk): 5700 nM | IC50 (VEGF-R1): > 10000 nM | IC50 (FGR): 4600 nM | IC50 (EGF-R): > 10000 nM | IC50 (Eph-B4): > 10000 nM | IC50 (Flt-3): > 10000 nM | IC50 (Ins-R): > 10000 nM | IC50 (FGF-R4): > 10000 nM | IC50 (Lck): 7500 nM | IC50 (Irak): > 10000 nM | IC50 (Src): 3200 nM
